# Assay results from patent publication US8637676B2, “Dual-acting benzoimidazole antihypertensive agents” (Theravance, Inc., priority 2007, dated 2014).
# How the values were obtained:
# [1] = biological target: T1, human AT1 receptor (Homo sapiens, UniProt P30556); experiment: AT1 radioligand binding assay (Assay 1); details: displacement of [Eu]AngII, membranes of CHO-K1 cells expressing human AT1 receptor; read-out: pKi at the AT1 receptor (converted)
# T1 construct: expressed in transfected cells; membranes
# T1 sequence (P30556 1-359): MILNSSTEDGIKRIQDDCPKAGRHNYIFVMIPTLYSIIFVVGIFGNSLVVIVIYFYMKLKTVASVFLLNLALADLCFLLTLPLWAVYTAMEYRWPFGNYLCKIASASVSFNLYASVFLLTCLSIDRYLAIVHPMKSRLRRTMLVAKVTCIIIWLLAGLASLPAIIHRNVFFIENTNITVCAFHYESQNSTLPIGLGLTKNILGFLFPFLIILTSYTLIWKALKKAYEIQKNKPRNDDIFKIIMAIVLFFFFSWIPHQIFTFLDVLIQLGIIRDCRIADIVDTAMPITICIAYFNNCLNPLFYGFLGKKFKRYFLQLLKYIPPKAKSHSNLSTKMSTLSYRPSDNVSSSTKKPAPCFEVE
# Protocol: These in vitro assays were used to assess the ability of test compounds to bind to the AT1 and the AT2 receptors.
# Membrane Preparation From Cells Expressing Human AT1 or AT2 Receptors
# Chinese hamster ovary (CHO-K^1) derived cell lines stably expressing the cloned human AT1 or AT2 receptors, respectively, were grown in HAM's-F12 medium supplemented with 10% fetal bovine serum, 10 μg/ml penicillin/streptomycin, and 500 μg/ml geneticin in a 5% CO2 humidified incubator at 37° C. AT2 receptor expressing cells were grown in the additional presence of 100 nM PD123,319 (AT2 antagonist). When cultures reached 80-95% confluence, the cells were washed thoroughly in PBS and lifted with 5 mM EDTA. Cells were pelleted by centrifugation and snap frozen in MeOH-dry ice and stored at −80° C. until further use.
# For membrane preparation, cell pellets were resuspended in lysis buffer (25 mM Tris/HCl pH 7.5 at 4° C., 1 mM EDTA, and one tablet of Complete Protease Inhibitor Cocktail Tablets with 2 mM EDTA per 50 mL buffer (Roche cat.#1697498, Roche Molecular Biochemicals, Indianapolis, Ind.)) and homogenized using a tight-fitting Dounce glass homogenizer (10 strokes) on ice. The homogenate was centrifuged at 1000×g, the supernatant was collected and centrifuged at 20,000×g. […] Protein concentration of the membrane suspension was determined by the method described in Bradford (1976) Anal Biochem. 72:248-54. […]
# [2] = biological target: T2, NEP enzyme (Homo sapiens, UniProt P08473); experiment: In vitro NEP enzyme inhibition assay (Assay 2); format: biochemical; details: fluorogenic peptide substrate; species of NEP (human or rat) not given; read-out: pIC50 for the NEP enzyme (converted)
# T2 construct: purchased R&D Systems, Minneapolis, Minn; 1182-ZN
# T2 sequence (P08473 52-750 limits assumed): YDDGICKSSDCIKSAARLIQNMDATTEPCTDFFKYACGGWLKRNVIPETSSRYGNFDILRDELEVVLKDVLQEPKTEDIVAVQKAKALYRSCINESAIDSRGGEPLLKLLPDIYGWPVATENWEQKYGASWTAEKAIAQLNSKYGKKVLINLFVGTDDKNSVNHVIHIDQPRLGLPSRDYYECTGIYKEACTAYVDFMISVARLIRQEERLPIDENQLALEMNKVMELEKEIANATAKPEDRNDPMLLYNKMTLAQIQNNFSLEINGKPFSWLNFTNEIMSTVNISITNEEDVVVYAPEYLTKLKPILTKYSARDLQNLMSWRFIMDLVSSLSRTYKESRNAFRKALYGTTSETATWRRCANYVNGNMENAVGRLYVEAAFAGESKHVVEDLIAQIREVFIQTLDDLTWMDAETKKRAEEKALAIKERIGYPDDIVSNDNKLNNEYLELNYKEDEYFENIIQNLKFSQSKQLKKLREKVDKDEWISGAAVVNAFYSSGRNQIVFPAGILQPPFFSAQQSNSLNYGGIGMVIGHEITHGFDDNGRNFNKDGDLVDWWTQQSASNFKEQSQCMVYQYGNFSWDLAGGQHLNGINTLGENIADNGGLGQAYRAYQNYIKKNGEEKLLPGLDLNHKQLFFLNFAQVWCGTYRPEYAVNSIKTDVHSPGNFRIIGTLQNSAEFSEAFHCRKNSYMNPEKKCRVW
# Protocol: The inhibitory activities of compounds at human and rat NEP and human ACE were determined using in vitro assays as described below.
# Rat NEP was prepared from the kidneys of adult Sprague Dawley rats. Whole kidneys were washed in cold PBS and brought up in ice-cold lysis buffer (1% Triton X-114, 150 mM NaCl, 50 mM Tris pH 7.5; Bordier (1981) J. Biol. Chem. 256:1604-1607) in a ratio of 5 mL of buffer for every gram of kidney. Samples were homogenized using a polytron hand held tissue grinder on ice. Homogenates were centrifuged at 1000×g in a swinging bucket rotor for 5 minutes at 3° C. The pellet was resuspended in 20 mL of ice cold lysis buffer and incubated on ice for 30 minutes. […] Protein concentrations were quantitated using a BCA detection system with BSA as a standard. […]
# The assays were performed in 384-well white opaque plates at room temperature using the respective fluorogenic peptides at a concentration of 10 μM in assay buffer (50 mM Tris/HCl at 25° C., 100 mM NaCl, 0.01% Tween-20, 1 μM Zn, 0.025% BSA). […] The rat NEP enzyme preparation was used at a concentration that yielded quantitative proteolysis of 3 μM of Mca-RRL within 20 minutes at room temperature.
# Assays were started by adding 25 μL of enzyme to 12.5 μL of test compound at 12 concentrations (10 μM to 20 pM). […] Plates were read on a fluorometer with excitation and emission wavelengths set to 320 nm and 405 nm, respectively. […]
smiles,measurement,setting,value
"CCCc1nc2c(C)cc(C(=O)N[C@@H](CC(=O)NO)Cc3ccccc3)cc2n1Cc1ccc(-c2ccccc2C(=O)O)cc1 [Example 1, 4′-[6-((R)-1-Benzyl-2-hydroxycarbamoylethylcarbamoyl)-4-methyl-2-propylbenzoimidazol-1-ylmethyl]biphenyl-2-carboxylic Acid]",Ki,[1],< 100 nM
same,IC50,[2],≤ 100 nM
